Reference: patent publication US20140023611A1 (priority 2010, published 2014)

Tested on: not given
Experiment: not given
Settings: human absorption data, common drugs; cited from earlier work
For OC[C@H]1O[C@@H](O[C@@H]2[C@@H](CO)OC(O)(CO)[C@H]2O)[C@H](O)[C@@H](O)[C@H]1O (mixture of isomers) [lactulose], the “% FA” value is given as 0.6%.
In the case of C=CCc1ccccc1OCC(O)CNC(C)C (centres unmarked) [alprenolol], the “% FA” value is given as 96%.
In the case of O=C(O)P(=O)(O)O [foscarnet], the “% FA” value is listed as 17%.
For OC[C@@H](O)[C@@H](O)[C@H](O)[C@H](O)CO [mannitol], the “% FA” value is listed as 26%.
In the case of Cc1ccccc1N1C(=O)c2cc(S(N)(=O)=O)c(Cl)cc2NC1C (centres unmarked) [metolazone], the “% FA” value is given as 64%.
For O=C(O)c1cc(/N=N/c2ccc(O)c(C(=O)O)c2)ccc1O [olsalazine], the “% FA” value is listed as 2.3%.
For C=CCOc1ccccc1OCC(O)CNC(C)C (centres unmarked) [oxprenolol], the “% FA” value is listed as 97%.
For CC(C)NCC(O)COc1cccc2[nH]ccc12 (centres unmarked) [pindolol], the “% FA” value is listed as 92%.
For CC(=O)Nc1ccc(OCC(O)CNC(C)C)cc1 (centres unmarked) [practolol], the “% FA” value is given as 95%.
In the case of OC[C@H]1O[C@H](OC[C@H]2O[C@H](O[C@]3(CO)O[C@H](CO)[C@@H](O)[C@@H]3O)[C@H](O)[C@@H](O)[C@@H]2O)[C@H](O)[C@@H](O)[C@H]1O [raffinose], the “% FA” value is listed as 0.3%.
For O=C(O)c1cc(/N=N/c2ccc(S(=O)(=O)Nc3ccccn3)cc2)ccc1O [sulfasalazine], the “% FA” value is listed as 12%.
For CCN1CCCC1CNC(=O)c1cc(S(N)(=O)=O)ccc1OC (centres unmarked) [sulpiride], the “% FA” value is listed as 36%.
For NC[C@H]1CC[C@H](C(=O)O)CC1 [tranexamic acid], the “% FA” value is listed as 55%.

Biological target: T1, rat NaP2b (SLC34A2) (Rattus norvegicus, UniProt Q9JJ09)
T1 construct: host or cells: HEK293
T1 sequence (Q9JJ09 1-695): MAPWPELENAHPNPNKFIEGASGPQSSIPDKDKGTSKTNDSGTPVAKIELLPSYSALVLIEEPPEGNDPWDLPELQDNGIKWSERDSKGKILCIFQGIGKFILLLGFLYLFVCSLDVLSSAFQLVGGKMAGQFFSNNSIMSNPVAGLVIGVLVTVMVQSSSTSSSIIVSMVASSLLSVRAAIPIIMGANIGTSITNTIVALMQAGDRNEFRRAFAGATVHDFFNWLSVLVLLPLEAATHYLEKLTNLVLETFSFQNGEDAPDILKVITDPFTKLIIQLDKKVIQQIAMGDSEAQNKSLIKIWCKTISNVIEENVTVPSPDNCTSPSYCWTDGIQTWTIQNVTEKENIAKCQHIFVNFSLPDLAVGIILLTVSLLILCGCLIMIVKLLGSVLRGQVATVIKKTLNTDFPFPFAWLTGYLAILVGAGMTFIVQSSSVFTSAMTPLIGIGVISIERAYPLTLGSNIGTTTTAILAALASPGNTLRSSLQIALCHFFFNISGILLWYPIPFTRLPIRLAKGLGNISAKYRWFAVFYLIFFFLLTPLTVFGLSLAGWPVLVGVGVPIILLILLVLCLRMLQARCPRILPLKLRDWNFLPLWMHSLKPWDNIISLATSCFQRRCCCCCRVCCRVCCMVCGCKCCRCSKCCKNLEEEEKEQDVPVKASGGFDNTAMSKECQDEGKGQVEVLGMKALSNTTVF
Experiment: NaP2b-mediated Pi transport (33P uptake) in transfected HEK293 cells, rat NaP2b
Assay type: cell-based
Settings: Structure (III) examples, Table 2; HEK293, 0.1 mM phosphate; read-out: pIC50 range for rat Nap2b (converted)
Protocol: HEK293 cells were obtained from the American Type Culture collection and propagated per their instructions. Expression clones for rat and human NaP2b (SLC34A2) were obtained from Open Biosystems (Catalog numbers MRN1768-9510282, and MHS1010-99823026, respectively). The sequence of the human protein was mutated to insert a threonine after residue 37, and to introduce a N39D mutation.
(§1) The rate of phosphate (Pi) uptake into HEK293 cells was measured using a modification of the method described by Mohrmann et al. (Mohrmann, I., Mohrmann, M., Biber, J., and Murer, H. (1986) Am. J. Phys. 250(3 Pt 1):G323-30.) Transfected HEK293 cells were treated with a pharmacological agent to minimize endogenous PiT-mediated phosphate transport activity, such that the only remaining sodium-dependent phosphate transport activity is that which was bestowed by introduction of the NaP2b genes.
(§2) Cells were seeded into 96-well plates at 25,000 cells/well and cultured overnight. Lipofectamine 2000 (Invitrogen) was used to introduce the NaP2b cDNA, and the cells were allowed to approach confluence during a second overnight incubation. […] Cells were then overlayed with either choline uptake buffer or sodium uptake buffer (14 mM Tris, 137 mM sodium chloride, 5.4 mM KCl, 2.8 mM CaCl2, 1.2 mM MgSO4, 100 uM KH2PO4, PiT-silencing agent, 1 mg/mL Bovine Serum Albumin, pH 7.4) containing 6-9 uCi/mL ^33P orthophosphoric acid (Perkin Elmer) and test compound. Each compound was tested at twelve concentrations ranging from 0.1 nM to 30 uM. Assays were run in duplicate.
After incubation for 3-30 minutes at room temperature, assay mixtures were removed, and the cells were washed twice with ice cold stop solution (137 mM sodium chloride, 14 mM Tris, pH 7.4). Cells were lysed by addition of 20 μL 0.1% Tween 80 followed by 100 μL scintillation fluid, and counted using a TopCount (Perkin Elmer).
pIC50 (the negative log of the IC50) values of the test compounds were calculated using GraphPad Prism.
HEK293 cells were obtained from the American Type Culture collection and propagated per their instructions. Expression clones for rat and mouse NaP2b (SLC34A2) cDNAs were obtained from Open Biosystems (Catalog numbers MRN1768-9510282 and MMM1013-98478398 respectively).
as §1, with “phosphate” for “phosphate (Pi)”
as §2, with “agent, 0.1% wt/v bovine serum albumin,” for “agent, 1 mg/mL Bovine Serum Albumin,”, “Each compounds” for “Each compound”
After incubation for 3-30 minutes at room temperature, assay mixtures were removed, and the cells were washed twice with ice cold stop solution (137 mM sodium chloride, 14 mM Tris, pH 7.4).
Compound O=C(O)CCSCc1cccc(C(=O)Nc2ccc(N3CCCCC3)cc2C(=O)Nc2cnc(-c3cccc(C(F)(F)F)c3)cn2)c1 [Example 12] has an IC50 of 1000 to 7940 nM.

Same assay, conditions: Structure (V) examples, Table 2; rat NaP2b, HEK293; read-out: pIC50 Range (converted)
Work on O=C(Nc1ccc(N2CCCCC2)cc1C(=O)N/N=C/c1ccc(Cl)c(C(F)(F)F)c1)c1cccc(Cn2cc(CCOCCOCCOCCNC(=O)C(O)C(O)C(=O)O)nn2)c1 (centres unmarked) [Ex. 27] yielded an IC50 of 10000 to 100000 nM.
With O=C(CCOCCOCCOCCOCCOCCOCCOCCOCCSCc1cccc(C(=O)Nc2ccc(N3CCCCC3)cc2C(=O)N/N=C/c2ccc(Cl)c(C(F)(F)F)c2)c1)N[C@H]1C(O)O[C@H](CO)[C@@H](O)[C@@H]1O (some centres unmarked) [Ex. 28] the IC50 was 10000 to 100000 nM.
In the case of O=C(O)CCOCCOCCOCCOCCOCCOCCOCCOCCSCc1cccc(C(=O)Nc2ccc(Cl)cc2C(=O)N/N=C/c2ccc(Cl)c(C(F)(F)F)c2)c1 [Ex. 29], the IC50 is reported as 100 to 794 nM.
O=C(Nc1ccc(Cl)cc1C(=O)N/N=C/c1ccc(Cl)c(C(F)(F)F)c1)c1cccc(Cn2cc(CCO)nn2)c1 [Ex. 30] gave an IC50 of 10 to 79.4 nM.
In the case of O=C(Nc1ccc(N2CCCCC2)cc1C(=O)N/N=C/c1ccc(Cl)c(C(F)(F)F)c1)c1cccc(C#CCCO)c1 [Ex. 31], the IC50 is reported as 10 to 79.4 nM.
[N-]=[N+]=NCCOCCOCCOCCNCc1cccc(C(=O)Nc2ccc(N3CCCCC3)cc2C(=O)N/N=C/c2ccc(Cl)c(C(F)(F)F)c2)c1 [Ex. 32] gave an IC50 of 100 to 794 nM.
For [N-]=[N+]=NCCOCCOCCOCCNC(=O)CCSCc1cccc(C(=O)Nc2ccc(N3CCCCC3)cc2C(=O)N/N=C/c2ccc(Cl)c(C(F)(F)F)c2)c1 [Ex. 33], the IC50 was 100 to 794 nM.
[N-]=[N+]=NCCOCCOCCOCCNC(=O)C1CCN(Cc2cccc(C(=O)Nc3ccc(N4CCCCC4)cc3C(=O)N/N=C/c3ccc(Cl)c(C(F)(F)F)c3)c2)CC1 [Ex. 34] gave an IC50 of 100 to 794 nM.
For CC(=O)N[C@@H](CCCCNC(=O)CCSCc1cccc(C(=O)Nc2ccc(N3CCCCC3)cc2C(=O)N/N=C/c2ccc(Cl)c(C(F)(F)F)c2)c1)C(=O)O [Ex. 35], the IC50 was 1000 to 7940 nM.
Compound O=C(Nc1ccc(N2CCCCC2)cc1C(=O)N/N=C/c1ccc(Cl)c(C(F)(F)F)c1)c1cccc(Cc2nc(CCO)cs2)c1 [Ex. 45, (E)-N-(2-(2-(4-chloro-3-(trifluoromethyl)benzylidene)hydrazine-carbonyl)-4-(piperidin-1-yl)phenyl)-3-((4-(2-hydroxyethyl)thiazol-2-yl)methyl)benzamide] has an IC50 of 100 to 794 nM.
For O=C(CCSCc1cccc(C(=O)Nc2ccc(N3CCCCC3)cc2C(=O)N/N=C/c2ccc(Cl)c(C(F)(F)F)c2)c1)Nc1ccc(B(O)O)cc1 [Ex. 46, (E)-4-(3-(3-(2-(2-(4-chloro-3-(trifluoromethyl)benzylidene)hydrazinecarbonyl)-4-(piperidin-1-yl)phenylcarbamoyl)benzylthio)propanamido)phenylboronic acid], the IC50 was 100 to 794 nM.
For COCCNC(=O)CC[S+]([O-])Cc1cccc(C(=O)Nc2ccc(N3CCCCC3)cc2C(=O)N/N=C/c2ccc(Cl)c(C(F)(F)F)c2)c1 (centres unmarked) [Ex. 51, (E)-N-(2-(2-(4-chloro-3-(trifluoromethyl)benzylidene)hydrazinecarbonyl)-4-(piperidin-1-yl)phenyl)-3-((3-(2-methoxyethylamino)-3-oxopropylsulfinyl)methyl)benzamide], the IC50 was 100 to 794 nM.
O=C(Nc1ccc(N2CCCCC2)cc1C(=O)N/N=C/c1ccc(Cl)c(C(F)(F)F)c1)c1cccc(Cn2cc(CO)nn2)c1 [Example 8] gave an IC50 of 100 to 794 nM.
Work on NCc1cn(Cc2cccc(C(=O)Nc3ccc(N4CCCCC4)cc3C(=O)N/N=C/c3ccc(Cl)c(C(F)(F)F)c3)c2)nn1 [Example 10] yielded an IC50 of 1000 to 7940 nM.
NC(Cc1cn(Cc2cccc(C(=O)Nc3ccc(N4CCCCC4)cc3C(=O)N/N=C/c3ccc(Cl)c(C(F)(F)F)c3)c2)nn1)C(=O)O (centres unmarked) [Example 11] showed an IC50 of 1000 to 7940 nM.
O=C(O)c1ccc(-c2cn(Cc3cccc(C(=O)Nc4ccc(N5CCCCC5)cc4C(=O)N/N=C/c4ccc(Cl)c(C(F)(F)F)c4)c3)nn2)cc1 [Example 12] showed an IC50 of 100 to 794 nM.
NCCOCCOCCOCCc1cn(Cc2cccc(C(=O)Nc3ccc(N4CCCCC4)cc3C(=O)N/N=C/c3ccc(Cl)c(C(F)(F)F)c3)c2)nn1 [Example 25] gave an IC50 of 1000 to 7940 nM.
Compound O=C(Nc1ccc(N2CCCCC2)cc1C(=O)N/N=C/c1ccc(Cl)c(C(F)(F)F)c1)c1cccc(Cn2cc(CCCP(=O)(O)O)nn2)c1 [Example 26] has an IC50 of 10000 to 100000 nM.
